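The concentration for 50% growth inhibition is given as GI50. The concentration for full growth arrest is given as TGI.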
What was measured:
Experiment in all cases: growth of human tumour cells (NCI), 384-well format
MDA-MB-435 melanoma = system: MDA-MB-435 melanoma
786-0 renal = system: 786-0 renal
UACC-257 melanoma = system: UACC-257 melanoma
COLO 205 colon = system: COLO 205 colon
RPMI-8226 leukemia = system: RPMI-8226 leukemia
SF-539 CNS = system: SF-539 CNS
NCI-H460 NSCLC = system: NCI-H460 NSCLC
MDA-MB-231 breast = system: MDA-MB-231 breast
A549 NSCLC = system: A549 NSCLC
K-562 leukemia = system: K-562 leukemia
HT29 colon = system: HT29 colon
OVCAR-4 ovarian = system: OVCAR-4 ovarian
KM12 colon = system: KM12 colon
IGROV1 ovarian = system: IGROV1 ovarian
SN12C renal = system: SN12C renal
SNB-19 CNS = system: SNB-19 CNS
LOX IMVI melanoma = system: LOX IMVI melanoma
PC-3 prostate = system: PC-3 prostate
SK-MEL-2 melanoma = system: SK-MEL-2 melanoma
M14 melanoma = system: M14 melanoma
SNB-75 CNS = system: SNB-75 CNS
CCRF-CEM leukemia = system: CCRF-CEM leukemia
MCF7 breast = system: MCF7 breast
NCI-H522 lung = system: NCI-H522 lung
NCI-H322M lung = system: NCI-H322M lung
SK-MEL-28 melanoma = system: SK-MEL-28 melanoma
HOP-92 NSCLC = system: HOP-92 NSCLC
A498 renal = system: A498 renal
OVCAR-8 ovarian = system: OVCAR-8 ovarian
MOLT-4 leukemia = system: MOLT-4 leukemia
TK-10 renal = system: TK-10 renal
SK-MEL-5 melanoma = system: SK-MEL-5 melanoma
SF-295 CNS = system: SF-295 CNS
DU-145 prostate = system: DU-145 prostate
SF-268 CNS = system: SF-268 CNS
CAKI-1 renal = system: CAKI-1 renal
UO-31 renal = system: UO-31 renal
BT-549 breast = system: BT-549 breast
SK-OV-3 ovarian = system: SK-OV-3 ovarian
NCI-H23 lung = system: NCI-H23 lung
MALME-3M melanoma = system: MALME-3M melanoma
HCT-15 colon = system: HCT-15 colon
EKVX NSCLC = system: EKVX NSCLC
OVCAR-5 ovarian = system: OVCAR-5 ovarian
HS 578T breast = system: HS 578T breast
HCT-116 colon = system: HCT-116 colon
U251 glioblastoma = system: U251 glioblastoma

Cc1cc2c(C(C)C)c(O)c(O)c(C=O)c2c(O)c1-c1c(C)cc2c(C(C)C)c(O)c(O)c(C=O)c2c1O (tested in a mixture with another compound)
GI50 (MDA-MB-435 melanoma): 2420 nM | TGI (MDA-MB-435 melanoma): 5170 nM | GI50 ([…]-0 renal): 1890 nM | TGI (786-0 renal): 3610 nM | GI50 (UACC-257 melanoma): 1990 nM | TGI (UACC-257 melanoma): 3800 nM | GI50 (COLO 205 colon): 3180 nM | TGI (COLO 205 colon): 9010 nM | GI50 (RPMI-8226 leukemia): 1420 nM | TGI (RPMI-8226 leukemia): 2730 nM | GI50 (SF-539 CNS): 1720 nM | TGI (SF-539 CNS): 3180 nM | GI50 (NCI-H460 NSCLC): 1900 nM | TGI (NCI-H460 NSCLC): 3400 nM | GI50 (MDA-MB-231 breast): 1880 nM | TGI (MDA-MB-231 breast): 4150 nM | GI50 (A549 NSCLC): 1860 nM | TGI (A549 NSCLC): 4500 nM | GI50 (K-562 leukemia): 1400 nM | TGI (K-562 leukemia): 2870 nM | GI50 (HT29 colon): 2880 nM | TGI (HT29 colon): 9040 nM | GI50 (OVCAR-4 ovarian): 2850 nM | TGI (OVCAR-4 ovarian): 7520 nM | GI50 (KM12 colon): 1500 nM | TGI (KM12 colon): 3100 nM | GI50 (IGROV1 ovarian): 1950 nM | TGI (IGROV1 ovarian): 3850 nM | GI50 (SN12C renal): 1920 nM | TGI (SN12C renal): 3730 nM | GI50 (SNB-19 CNS): 1250 nM | TGI (SNB-19 CNS): 2920 nM | GI50 (LOX IMVI melanoma): 1830 nM | TGI (LOX IMVI melanoma): 3420 nM | GI50 (PC-3 prostate): 1670 nM | TGI (PC-3 prostate): 3520 nM | GI50 (SK-MEL-2 melanoma): 1970 nM | TGI (SK-MEL-2 melanoma): 3610 nM | GI50 (M14 melanoma): 1830 nM | TGI (M14 melanoma): 3790 nM | GI50 (SNB-75 CNS): 2260 nM | TGI (SNB-75 CNS): 4370 nM | GI50 (CCRF-CEM leukemia): 1140 nM | TGI (CCRF-CEM leukemia): 2380 nM | GI50 (MCF7 breast): 2090 nM | TGI (MCF7 breast): 4510 nM | GI50 (NCI-H522 lung): 1860 nM | TGI (NCI-H522 lung): 4100 nM | GI50 (NCI-H322M lung): 1670 nM | TGI (NCI-H322M lung): 4140 nM | GI50 (SK-MEL-28 melanoma): 1590 nM | TGI (SK-MEL-28 melanoma): 3130 nM | GI50 (HOP-92 NSCLC): 1780 nM | TGI (HOP-92 NSCLC): 4000 nM | GI50 (A498 renal): 2410 nM | TGI (A498 renal): 9870 nM | GI50 (OVCAR-8 ovarian): 1750 nM | TGI (OVCAR-8 ovarian): 3240 nM | GI50 (MOLT-4 leukemia): 765 nM | TGI (MOLT-4 leukemia): 2010 nM | GI50 (TK-10 renal): 2480 nM | TGI (TK-10 renal): 6230 nM | GI50 (SK-MEL-5 melanoma): 1760 nM | TGI (SK-MEL-5 melanoma): 3180 nM | GI50 (SF-295 CNS): 1210 nM | TGI (SF-295 CNS): 2710 nM | GI50 (DU-145 prostate): 1860 nM | TGI (DU-145 prostate): 3470 nM | GI50 (SF-268 CNS): 1660 nM | TGI (SF-268 CNS): 3260 nM | GI50 (CAKI-1 renal): 2530 nM | TGI (CAKI-1 renal): 5930 nM | GI50 (UO-31 renal): 2730 nM | TGI (UO-31 renal): 7080 nM | GI50 (BT-549 breast): 1530 nM | TGI (BT-549 breast): 2940 nM | GI50 (SK-OV-3 ovarian): 2580 nM | TGI (SK-OV-3 ovarian): 6670 nM | GI50 (NCI-H23 lung): 1840 nM | TGI (NCI-H23 lung): 4060 nM | GI50 (MALME-3M melanoma): 1700 nM | TGI (MALME-3M melanoma): 3470 nM | GI50 (HCT-15 colon): 1830 nM | TGI (HCT-15 colon): 3350 nM | GI50 (EKVX NSCLC): 1850 nM | TGI (EKVX NSCLC): 3970 nM | GI50 (OVCAR-5 ovarian): 2290 nM | TGI (OVCAR-5 ovarian): 4570 nM | GI50 (HS 578T breast): 1670 nM | TGI (HS 578T breast): 3060 nM | GI50 (HCT-116 colon): 1700 nM | TGI (HCT-116 colon): 3120 nM | GI50 (U251 glioblastoma): 1590 nM | TGI (U251 glioblastoma): 3020 nM
